Data published in PubChem BioAssay AID256 (DTP/NCI, 2004).
Inconclusive results and toxic doses are left out. Rule for the calls: active = survival T/C of 150% or more; inactive = T/C below 125% in these data.

Tested on: CD2F1 mice, L1210 leukemia ip, survival T/C
Test: NCI In Vivo Anticancer Drug Screen. Data for tumor model L1210 Leukemia (intraperitoneal) in CD2F1 (CDF1) mice
Settings: higher = longer survival
Procedure, shortened: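 Tumor-bearing mice (transplanted tumor) were split into treated and vehicle control groups, and the measured endpoint of each treated group was divided by that of its vehicle controls.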

[1] = endpoint: mean survival time, dose: 100.0 mg/kg/injection, schedule: Q01DX001 (ip), vehicle: saline
[2] = endpoint: mean survival time, dose: 200.0 mg/kg/injection, schedule: Q01DX001 (ip), vehicle: saline
[3] = endpoint: mean survival time, dose: 100.0 mg/kg/injection, schedule: Q01DX001 (ip), vehicle: saline with Tween-80
[4] = endpoint: mean survival time, dose: 200.0 mg/kg/injection, schedule: Q01DX001 (ip), vehicle: saline with Tween-80
[5] = endpoint: mean survival time, dose: 400.0 mg/kg/injection, schedule: Q01DX001 (ip), vehicle: saline with Tween-80
[6] = endpoint: mean survival time, dose: 100.0 mg/kg/injection, schedule: Q01DX009 (ip), vehicle: saline with Tween-80
[7] = endpoint: mean survival time, dose: 100.0 mg/kg/injection, schedule: Q04DX003 (ip), vehicle: saline with Tween-80
[8] = endpoint: mean survival time, dose: 200.0 mg/kg/injection, schedule: Q01DX009 (ip), vehicle: saline with Tween-80
[9] = endpoint: mean survival time, dose: 200.0 mg/kg/injection, schedule: Q04DX003 (ip), vehicle: saline with Tween-80
[10] = endpoint: mean survival time, dose: 400.0 mg/kg/injection, schedule: Q01DX009 (ip), vehicle: saline with Tween-80
[11] = endpoint: mean survival time, dose: 400.0 mg/kg/injection, schedule: Q04DX003 (ip), vehicle: saline with Tween-80
[12] = endpoint: mean survival time, dose: 75.0 mg/kg/injection, schedule: Q01DX001 (ip), vehicle: saline
[13] = endpoint: mean survival time, dose: 100.0 mg/kg/injection, schedule: Q04DX002 (ip), vehicle: saline with Tween-80
[14] = endpoint: mean survival time, dose: 100.0 mg/kg/injection, schedule: Q01DX009 (ip), vehicle: saline sonified
[15] = endpoint: mean survival time, dose: 200.0 mg/kg/injection, schedule: Q01DX009 (ip), vehicle: saline sonified
[16] = endpoint: mean survival time, dose: 400.0 mg/kg/injection, schedule: Q01DX009 (ip), vehicle: saline sonified

Measured: T/C

CC(C)c1cc2cc(Br)ccc2o1
inactive: [1] 103 % of control | [2] 95 % of control

FCCc1ccc(F)cc1
inactive: [3] 101 % of control | endpoint: mean survival time, dose: 100.0 mg/kg/injection, schedule: Q04DX003 (ip), vehicle: saline sonified 93 % of control | [4] 100 % of control | endpoint: mean survival time, dose: 200.0 mg/kg/injection, schedule: Q04DX003 (ip), vehicle: saline sonified 100 % of control | [5] 101 % of control | endpoint: mean survival time, dose: 400.0 mg/kg/injection, schedule: Q04DX003 (ip), vehicle: saline sonified 98 % of control

CCC(C)OC(=O)Nc1ccccc1 (centres undefined)
inactive: [6] 96 % of control | [7] 94 % of control | [8] 98 % of control | [9] 94 % of control | [10] 98 % of control | [11] 94 % of control

CS(=O)(=O)OCC1OC(n2ccc(NC(=O)c3ccccc3)nc2=O)CC1OS(C)(=O)=O (centres undefined)
inactive: endpoint: median survival time, dose: 12.5 mg/kg/injection, schedule: Q01DX005 (ip), vehicle: saline with Tween-80 108 % of control | endpoint: median survival time, dose: 25.0 mg/kg/injection, schedule: Q01DX005 (ip), vehicle: saline with Tween-80 100 % of control | endpoint: median survival time, dose: 50.0 mg/kg/injection, schedule: Q01DX005 (ip), vehicle: saline with Tween-80 107 % of control | endpoint: median survival time, dose: 100.0 mg/kg/injection, schedule: Q01DX005 (ip), vehicle: saline with Tween-80 103 % of control | endpoint: median survival time, dose: 200.0 mg/kg/injection, schedule: Q01DX005 (ip), vehicle: saline with Tween-80 97 % of control

O=C(O)Cc1cccnc1
inactive: endpoint: mean survival time, dose: 100.0 mg/kg/injection, schedule: Q01DX009 (ip), vehicle: saline 98 % of control | endpoint: mean survival time, dose: 200.0 mg/kg/injection, schedule: Q01DX009 (ip), vehicle: saline 102 % of control | endpoint: mean survival time, dose: 400.0 mg/kg/injection, schedule: Q01DX009 (ip), vehicle: saline 110 % of control

CCCC1NNC(CCC)NN1 (centres undefined)
inactive: [12] 102 % of control

CC([N+](=O)[O-])S(C)(=O)=O (centres undefined)
inactive: [3] 97 % of control | [4] 101 % of control | [5] 101 % of control

Cc1ccc(S(=O)(=O)OC2CCSCC2)cc1
inactive: [1] 102 % of control | [2] 94 % of control | endpoint: mean survival time, dose: 400.0 mg/kg/injection, schedule: Q01DX001 (ip), vehicle: saline 94 % of control

NC(CS)=NC1CN2CCC1CC2 (centres undefined)
inactive: endpoint: mean survival time, dose: 50.0 mg/kg/injection, schedule: Q04DX002 (ip), vehicle: saline 115 % of control | endpoint: mean survival time, dose: 100.0 mg/kg/injection, schedule: Q04DX002 (ip), vehicle: saline 101 % of control

N=C(N)Cc1ccc(NC(=O)c2ccc(C(=O)Nc3ccc(CC(=N)N)cc3)cc2)cc1
inactive: endpoint: mean survival time, dose: 7.2 mg/kg/injection, schedule: Q01DX009 (ip), vehicle: acetone 102 % of control | endpoint: mean survival time, dose: 10.8 mg/kg/injection, schedule: Q01DX009 (ip), vehicle: acetone 121 % of control

CCCc1nc(N)[nH]c(=O)c1CCCCCCCCCCCc1ccccc1
inactive: endpoint: mean survival time, dose: 75.0 mg/kg/injection, schedule: Q01DX001 (ip), vehicle: saline with Tween-80 98 % of control | endpoint: mean survival time, dose: 150.0 mg/kg/injection, schedule: Q01DX001 (ip), vehicle: saline with Tween-80 97 % of control | endpoint: mean survival time, dose: 300.0 mg/kg/injection, schedule: Q01DX001 (ip), vehicle: saline with Tween-80 95 % of control

O=C(O)COc1ccc(Cl)cc1Cl.[Cr]
inactive: [13] 94 % of control | endpoint: mean survival time, dose: 200.0 mg/kg/injection, schedule: Q04DX002 (ip), vehicle: saline with Tween-80 87 % of control | endpoint: mean survival time, dose: 400.0 mg/kg/injection, schedule: Q04DX002 (ip), vehicle: saline with Tween-80 102 % of control

CC1COC(Nc2cccc3c2CCCC3)=N1 (centres undefined)
inactive: endpoint: mean survival time, dose: 12.5 mg/kg/injection, schedule: Q04DX003 (ip), vehicle: saline with Tween-80 97 % of control | endpoint: mean survival time, dose: 25.0 mg/kg/injection, schedule: Q04DX003 (ip), vehicle: saline with Tween-80 97 % of control | endpoint: mean survival time, dose: 50.0 mg/kg/injection, schedule: Q04DX003 (ip), vehicle: saline with Tween-80 97 % of control

c1ccc2c(c1)CCc1ccccc1N2
inactive: [3] 100 % of control | [4] 100 % of control | [5] 91 % of control

O=C(O)/C=C/C(=O)Nc1cc2c(cc1Br)-c1ccccc1C2O (centres undefined)
inactive: [7] 100 % of control | [9] 102 % of control | [11] 94 % of control

O=C(O)CC12CCCCC1CCCC2 (centres undefined)
inactive: endpoint: mean survival time, dose: 100.0 mg/kg/injection, schedule: Q04DX003 (ip), vehicle: acetone 95 % of control | endpoint: mean survival time, dose: 200.0 mg/kg/injection, schedule: Q04DX003 (ip), vehicle: acetone 91 % of control | endpoint: mean survival time, dose: 400.0 mg/kg/injection, schedule: Q04DX003 (ip), vehicle: acetone 90 % of control

C=C(C)C1(Cc2ccccc2)C(=O)NC(=S)NC1=O
inactive: endpoint: mean survival time, dose: 5.0 mg/kg/injection, schedule: Q01DX001 (ip), vehicle: saline 102 % of control | endpoint: mean survival time, dose: 10.0 mg/kg/injection, schedule: Q01DX001 (ip), vehicle: saline 102 % of control | endpoint: mean survival time, dose: 20.0 mg/kg/injection, schedule: Q01DX001 (ip), vehicle: saline 104 % of control

CCCn1c(O)c(C=N)c(=O)n(CCC)c1=O
inactive: [6] 98 % of control | [7] 96 % of control | [8] 101 % of control | [9] 97 % of control | [10] 101 % of control | [11] 100 % of control

N=C(N)SCc1c(Cl)c(Cl)c(Cl)c(Cl)c1Cl
inactive: endpoint: mean survival time, dose: 25.0 mg/kg/injection, schedule: Q04DX002 (ip), vehicle: saline with Tween-80 103 % of control | endpoint: mean survival time, dose: 50.0 mg/kg/injection, schedule: Q04DX002 (ip), vehicle: saline with Tween-80 98 % of control | [13] 98 % of control

Cc1ccc(/C=N/NC(=O)CNC(=O)Nc2cccc([N+](=O)[O-])c2)cc1
inactive: endpoint: mean survival time, dose: 50.0 mg/kg/injection, schedule: Q01DX009 (ip), vehicle: saline with Tween-80 92 % of control | [6] 88 % of control

OC(c1c(F)c(F)c(C(O)(C(F)(F)F)C(F)(F)F)c(F)c1F)(C(F)(F)F)C(F)(F)F
inactive: [7] 96 % of control | [9] 104 % of control | [11] 96 % of control

COc1cc(OC)c(OC)cc1Br
inactive: [14] 101 % of control | [7] 102 % of control | [15] 97 % of control | [9] 102 % of control | [16] 97 % of control | [11] 102 % of control

NC(=O)COc1c(I)cc(I)cc1I
inactive: [14] 101 % of control | [7] 98 % of control | [15] 92 % of control | [9] 98 % of control | [16] 89 % of control | [11] 96 % of control

C/C=C(\C(=C\C)c1ccc(OC(=O)c2ccccc2)c(C2CCCCC2)c1)c1ccc(O)c(C2CCCCC2)c1
inactive: [12] 95 % of control | endpoint: mean survival time, dose: 150.0 mg/kg/injection, schedule: Q01DX001 (ip), vehicle: saline 95 % of control | endpoint: mean survival time, dose: 300.0 mg/kg/injection, schedule: Q01DX001 (ip), vehicle: saline 103 % of control

C/C(=N/NC(=O)c1ccccc1)c1ccc(O)cc1
inactive: [6] 96 % of control | [7] 96 % of control | [8] 97 % of control | [9] 98 % of control | [10] 91 % of control | [11] 100 % of control

O[C@@H](c1ccccc1)[C@@H](c1ccccc1)N1CCCCC1
inactive: endpoint: mean survival time, dose: 50.0 mg/kg/injection, schedule: Q04DX003 (ip), vehicle: saline 103 % of control | [1] 96 % of control | endpoint: mean survival time, dose: 100.0 mg/kg/injection, schedule: Q04DX003 (ip), vehicle: saline 108 % of control | [2] 104 % of control | endpoint: mean survival time, dose: 200.0 mg/kg/injection, schedule: Q04DX003 (ip), vehicle: saline 98 % of control
